Laboratory results reported in patent publication US20240390340A1 (INCYTE CORPORATION, priority 2023, published 2024).
pIC50: −log10 of the molar value.

Experiments:
KRAS G12V = KRAS G12V (Homo sapiens, UniProt P01116, G12V); assay: GDP-GTP exchange assay (bodipy-GDP/GppNHp, SOS1), KRAS G12V; assay type: biochemical; settings: Table H, column G12V; for compounds isolated as several atropisomers/diastereoisomers the value for the most potent isomer is quoted; read-out: KRAS G12V exchange assay IC50
KRAS G12D = KRAS G12D (Homo sapiens, UniProt P01116, G12D); assay: GDP-GTP exchange assay (bodipy-GDP/GppNHp, SOS1), KRAS G12D; assay type: biochemical; settings: Table H, column G12D; for compounds isolated as several atropisomers/diastereoisomers the value for the most potent isomer is quoted; read-out: KRAS G12D exchange assay IC50
Caco-2 cells = assay: Caco2 assay (Papp A-B); assay type: in vitro ADME; settings: test compound 50 μM, 120 min, 37° C.
Description: Caco-2 cells are grown at 37° C. in an atmosphere of 5% CO2 in DMEM growth medium supplemented with 10% (v/v) fetal bovine serum, 1% (v/v) nonessential amino acids, penicillin (100 U/mL), and streptomycin (100 μg/mL). Confluent cell monolayers are subcultured every 7 days or 4 days for Caco-2 by treatment with 0.05% trypsin containing […]. Caco-2 cells are seeded in 96-well Transwell plates. The seeding density for Caco-2 cells is 14,000 cells/well. DMEM growth medium is replaced every other day after seeding. Cell monolayers are used for transport assays between 22 and 25 days for Caco-2 cells.
Cell culture medium is removed and replaced with HBSS. To measure the TEER, the HBSS is added into the donor compartment (apical side) and receiver compartment (basolateral side). The TEER is measured by using a REMS Autosampler to ensure the integrity of the cell monolayers. Caco-2 cell monolayers with TEER values 300 Ω·cm^2 are used for transport experiments. To determine the Papp in the absorptive direction (A-B), solution of test compound (50 μM) in HBSS is added to the donor compartment (apical side), while HBSS solution with 4% BSA is added to the receiver compartment (basolateral side). The apical volume was 0.075 mL, and the basolateral volume is 0.25 mL. The incubation period is 120 min. at 37° C. in an atmosphere of 5% CO2. At the end of the incubation period, samples from the donor and receiver sides are removed and an equal volume of MeCN is added for protein precipitation. The supernatants are collected after centrifugation (3000 rpm, Allegra X-14R Centrifuge from Beckman Coulter, Indianapolis, IN) for LCMS analysis. The permeability value is determined according to the equation:
[formula] • where the flux rate (F, mass/time) is calculated from the slope of cumulative amounts of compound of interest on the receiver side, SA is the surface area of the cell membrane, VD is the donor volume, and MD is the initial amount of the solution in the donor chamber.
The symbol “+” indicates a Caco-2 value of ≤0.5, “++” indicates a Caco-2 value of >0.5 but ≤1; and “+++” indicates a Caco-2 value of >1. “NA” indicates IC50 not available.

KRAS G12D, sequence (P01116 1-188 isoform P01116-2 G12D): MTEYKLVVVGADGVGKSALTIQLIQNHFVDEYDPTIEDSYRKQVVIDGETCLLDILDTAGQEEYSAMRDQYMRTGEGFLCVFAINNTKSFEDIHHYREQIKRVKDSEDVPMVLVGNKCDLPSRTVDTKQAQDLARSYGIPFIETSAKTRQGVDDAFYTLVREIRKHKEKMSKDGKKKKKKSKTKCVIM
KRAS G12V, sequence (P01116 1-188 isoform P01116-2 G12V): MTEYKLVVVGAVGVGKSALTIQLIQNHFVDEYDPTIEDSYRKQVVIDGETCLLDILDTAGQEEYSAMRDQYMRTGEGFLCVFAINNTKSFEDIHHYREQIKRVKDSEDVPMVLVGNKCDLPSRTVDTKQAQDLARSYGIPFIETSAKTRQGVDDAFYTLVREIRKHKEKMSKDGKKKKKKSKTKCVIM

| SMILES | pIC50 (KRAS G12V) | pIC50 (KRAS G12D) | Caco-2 (Caco-2 cells) |
| --- | --- | --- | --- |
| Cc1nc2c(F)c(-c3cccc(Cl)c3Cl)c(CCC#N)cc2c2c1cc([C@H]1C[C@H](OCc3ccon3)CN1C(=O)C1CC1)n2[C@H]1[C@H]2CN[C@@H]1C2 [Example 12] | ≥ 7.00 | ≥ 7.00 | + (a Caco-2 value of ≤0.5) |
| Cc1nc2c(F)c(-c3cccc(Cl)c3Cl)c(CCC#N)cc2c2c1cc([C@H]1C[C@H](OCc3cnsn3)CN1C(=O)C1CC1)n2[C@H]1[C@H]2CN[C@@H]1C2 [Example 13] | ≥ 7.00 | ≥ 7.00 | + (a Caco-2 value of ≤0.5) |
| Cc1nc2c(F)c(-c3cccc(Cl)c3Cl)c(CCC#N)cc2c2c1cc([C@H]1C[C@H](OCc3ccsn3)CN1C(=O)C1CC1)n2[C@H]1[C@H]2CN[C@@H]1C2 [Example 14] | ≥ 7.00 | ≥ 7.00 | + (a Caco-2 value of ≤0.5) |
| Cc1cc(CO[C@H]2C[C@H](c3cc4c(C)nc5c(F)c(-c6cccc(Cl)c6Cl)c(CCC#N)cc5c4n3[C@H]3[C@H]4CN[C@@H]3C4)N(C(=O)C3CC3)C2)ns1 [Example 15] | ≥ 7.00 | ≥ 7.00 | +++ (a Caco-2 value of >1) |
| COc1cccc(F)c1CO[C@H]1C[C@H](c2cc3c(C)nc4c(F)c(-c5cccc(Cl)c5Cl)c(CCC#N)cc4c3n2[C@H]2[C@H]3CN[C@@H]2C3)N(C(=O)C2CC2)C1 [Example 16] | ≥ 7.00 | ≥ 7.00 | ++ (a Caco-2 value of >0.5 but ≤1) |
| Cc1nc2c(F)c(-c3cccc(Cl)c3Cl)c(CCC#N)cc2c2c1cc([C@H]1C[C@H](OCc3ccc(F)cc3C#N)CN1C(=O)C1CC1)n2[C@H]1[C@H]2CN[C@@H]1C2 [Example 17] | ≥ 7.00 | ≥ 7.00 | + (a Caco-2 value of ≤0.5) |
| Cc1nc2c(F)c(-c3cccc(Cl)c3Cl)c(CCC#N)cc2c2c1cc([C@H]1C[C@H](OCc3ccccc3C(F)F)CN1C(=O)C1CC1)n2[C@H]1[C@H]2CN[C@@H]1C2 [Example 18] | ≥ 7.00 | ≥ 7.00 | + (a Caco-2 value of ≤0.5) |
| Cc1cccc(F)c1CO[C@H]1C[C@H](c2cc3c(C)nc4c(F)c(-c5cccc(Cl)c5Cl)c(CCC#N)cc4c3n2[C@H]2[C@H]3CN[C@@H]2C3)N(C(=O)C2CC2)C1 [Example 19] | ≥ 7.00 | ≥ 7.00 | + (a Caco-2 value of ≤0.5) |
| Cc1nc2c(F)c(-c3cccc(Cl)c3Cl)c(CCC#N)cc2c2c1cc([C@H]1C[C@H](OCc3ccccc3F)CN1C(=O)C1CC1)n2[C@H]1[C@H]2CN[C@@H]1C2 [Example 20] | ≥ 7.00 | ≥ 7.00 | + (a Caco-2 value of ≤0.5) |
| Cc1ccccc1CO[C@H]1C[C@H](c2cc3c(C)nc4c(F)c(-c5cccc(Cl)c5Cl)c(CCC#N)cc4c3n2[C@H]2[C@H]3CN[C@@H]2C3)N(C(=O)C2CC2)C1 [Example 21] | ≥ 7.00 | ≥ 7.00 | + (a Caco-2 value of ≤0.5) |
| Cc1nc2c(F)c(-c3cccc(Cl)c3Cl)c(CCC#N)cc2c2c1cc([C@H]1C[C@H](OC3CCOCC3)CN1C(=O)C1CC1)n2[C@H]1[C@H]2CN[C@@H]1C2 [Example 22] | ≥ 7.00 | ≥ 7.00 | + (a Caco-2 value of ≤0.5) |
| COC1CCC(O[C@H]2C[C@H](c3cc4c(C)nc5c(F)c(-c6cccc(Cl)c6Cl)c(CCC#N)cc5c4n3[C@H]3[C@H]4CN[C@@H]3C4)N(C(=O)C3CC3)C2)C1 (stereo partly drawn) [Example 23] | ≥ 7.00 | ≥ 7.00 | ++ (a Caco-2 value of >0.5 but ≤1) |
| Cc1nc2c(F)c(-c3cccc(Cl)c3Cl)c(CCC#N)cc2c2c1cc([C@H]1C[C@H](OC3CCC(C#N)C3)CN1C(=O)C1CC1)n2[C@H]1[C@H]2CN[C@@H]1C2 (stereo partly drawn) [Example 24] | ≥ 7.00 | ≥ 7.00 | + (a Caco-2 value of ≤0.5) |
| Cc1csnc1CO[C@H]1C[C@H](c2cc3c(-c4ccc(C(C)(C)O)nc4)nc4c(F)c(-c5cccc(Cl)c5Cl)c(CCC#N)cc4c3n2[C@H]2[C@H]3CN[C@@H]2C3)N(C(=O)C2CC2)C1 [Example 25] | ≥ 7.00 | ≥ 7.00 | + (a Caco-2 value of ≤0.5) |
| CN(C)C(=O)c1ccc(-c2nc3c(F)c(-c4cccc(Cl)c4Cl)c(CCC#N)cc3c3c2cc([C@H]2C[C@H](OCc4c(F)cccc4F)CN2C(=O)C2CC2)n3[C@H]2[C@H]3CN[C@@H]2C3)cn1 [Example 26] | ≥ 7.00 | ≥ 7.00 | + (a Caco-2 value of ≤0.5) |
| COc1ncccc1CO[C@H]1C[C@H](c2cc3c(C)nc4c(F)c(-c5cccc(Cl)c5Cl)c(CCC#N)cc4c3n2[C@H]2[C@H]3CN[C@@H]2C3)N(C(=O)C2CC2)C1 [Example 27] | ≥ 7.00 | ≥ 7.00 | ++ (a Caco-2 value of >0.5 but ≤1) |
| Cc1ccccc1O[C@H]1C[C@H](c2cc3c(C)nc4c(F)c(-c5cccc(Cl)c5Cl)c(CCC#N)cc4c3n2[C@H]2[C@H]3CN[C@@H]2C3)N(C(=O)C2CC2)C1 [Example 28, 3-(1-((1R,4R,5S)-2-azabicyclo[2.1.1]hexan-5-yl)-2-((2R,4S)-1-(cyclopropanecarbonyl)-4-(o-tolyloxy)pyrrolidin-2-yl)-7-(2,3-dichlorophenyl)-6-fluoro-4-methyl-1H-pyrrolo[3,2-c]quinolin-8-yl)propanenitrile] | ≥ 7.00 | ≥ 7.00 | ++ (a Caco-2 value of >0.5 but ≤1) |
| Cc1nc2c(F)c(-c3cccc(Cl)c3Cl)c(CCC#N)cc2c2c1cc([C@H]1C[C@H](OCc3nccs3)C3(CC3)N1C(=O)C1CC1)n2[C@H]1[C@H]2CN[C@@H]1C2 [Example 31] | ≥ 7.00 | ≥ 7.00 | + (a Caco-2 value of ≤0.5) |
| Cc1nc2c(F)c(-c3cccc(Cl)c3Cl)c(CCC#N)cc2c2c1cc([C@H]1C[C@H](OC(C)c3ccon3)CN1C(=O)C1CC1)n2[C@H]1[C@H]2CN[C@@H]1C2 (stereo partly drawn) [Example 32] | ≥ 7.00 | ≥ 7.00 | + (a Caco-2 value of ≤0.5) |
| Cc1nonc1CO[C@H]1C[C@H](c2cc3c(C)nc4c(F)c(-c5cccc(Cl)c5Cl)c(CCC#N)cc4c3n2[C@H]2[C@H]3CN[C@@H]2C3)N(C(=O)C2CC2)C1 [Example 33] | ≥ 7.00 | ≥ 7.00 | + (a Caco-2 value of ≤0.5) |
| CC(O)c1nc2c(F)c(-c3cccc(Cl)c3Cl)c(CCC#N)cc2c2c1cc([C@H]1C[C@H](OCc3c(F)cccc3F)CN1C(=O)C1CC1)n2[C@H]1[C@H]2CN[C@@H]1C2 (stereo partly drawn) [Example 34] | ≥ 7.00 | ≥ 7.00 | + (a Caco-2 value of ≤0.5) |
| CC(O)c1nc2c(F)c(-c3cccc(Cl)c3Cl)c(CCC#N)cc2c2c1cc([C@H]1C[C@H](OCc3ccc(F)cc3C#N)CN1C(=O)C1(C)CC1)n2[C@H]1[C@H]2CN[C@@H]1C2 (stereo partly drawn) [Example 35, 2-((((3S,5R)-5-(1-((1R,4R,5S)-2-Azabicyclo[2.1.1]hexan-5-yl)-8-(2-cyanoethyl)-7-(2,3-dichlorophenyl)-6-fluoro-4-(1-hydroxyethyl)-1H-pyrrolo[3,2-c]quinolin-2-yl)-1-(1-methylcyclopropane-1-carbonyl)pyrrolidin-3-yl)oxy)methyl)-5-fluorobenzonitrile] | ≥ 7.00 | ≥ 7.00 | ++ (a Caco-2 value of >0.5 but ≤1) |
| Cc1nc2c(F)c(-c3cccc(Cl)c3Cl)c(CCC#N)cc2c2c1cc([C@H]1C[C@H](Oc3cccnc3OC(F)F)CN1C(=O)C1CC1)n2[C@H]1[C@H]2CN[C@@H]1C2 [Example 37, 3-(1-((1R,4R,5S)-2-Azabicyclo[2.1.1]hexan-5-yl)-2-((2R,4S)-1-(cyclopropanecarbonyl)-4-((2-(difluoromethoxy)pyridin-3-yl)oxy)pyrrolidin-2-yl)-7-(2,3-dichlorophenyl)-6-fluoro-4-methyl-1H-pyrrolo[3,2-c]quinolin-8-yl)propanenitrile] | ≥ 7.00 | ≥ 7.00 | + (a Caco-2 value of ≤0.5) |
| Cc1nc2c(F)c(-c3cccc(Cl)c3Cl)c(CCC#N)cc2c2c1cc([C@H]1C[C@H](Oc3ccc(N(C)C)nc3)CN1C(=O)C1CC1)n2[C@H]1[C@H]2CN[C@@H]1C2 [Example 38, 3-(1-((1R,4R,5S)-2-Azabicyclo[2.1.1]hexan-5-yl)-2-((2R,4S)-1-(cyclopropanecarbonyl)-4-((6-(dimethylamino)pyridin-3-yl)oxy)pyrrolidin-2-yl)-7-(2,3-dichlorophenyl)-6-fluoro-4-methyl-1H-pyrrolo[3,2-c]quinolin-8-yl)propanenitrile] | ≥ 7.00 | ≥ 7.00 | ++ (a Caco-2 value of >0.5 but ≤1) |
